The target of one series is T1, AR protein (Homo sapiens, UniProt P10275).
T1 construct: endogenous in cells; host or cells: VCaP
T1 sequence (P10275 1-920): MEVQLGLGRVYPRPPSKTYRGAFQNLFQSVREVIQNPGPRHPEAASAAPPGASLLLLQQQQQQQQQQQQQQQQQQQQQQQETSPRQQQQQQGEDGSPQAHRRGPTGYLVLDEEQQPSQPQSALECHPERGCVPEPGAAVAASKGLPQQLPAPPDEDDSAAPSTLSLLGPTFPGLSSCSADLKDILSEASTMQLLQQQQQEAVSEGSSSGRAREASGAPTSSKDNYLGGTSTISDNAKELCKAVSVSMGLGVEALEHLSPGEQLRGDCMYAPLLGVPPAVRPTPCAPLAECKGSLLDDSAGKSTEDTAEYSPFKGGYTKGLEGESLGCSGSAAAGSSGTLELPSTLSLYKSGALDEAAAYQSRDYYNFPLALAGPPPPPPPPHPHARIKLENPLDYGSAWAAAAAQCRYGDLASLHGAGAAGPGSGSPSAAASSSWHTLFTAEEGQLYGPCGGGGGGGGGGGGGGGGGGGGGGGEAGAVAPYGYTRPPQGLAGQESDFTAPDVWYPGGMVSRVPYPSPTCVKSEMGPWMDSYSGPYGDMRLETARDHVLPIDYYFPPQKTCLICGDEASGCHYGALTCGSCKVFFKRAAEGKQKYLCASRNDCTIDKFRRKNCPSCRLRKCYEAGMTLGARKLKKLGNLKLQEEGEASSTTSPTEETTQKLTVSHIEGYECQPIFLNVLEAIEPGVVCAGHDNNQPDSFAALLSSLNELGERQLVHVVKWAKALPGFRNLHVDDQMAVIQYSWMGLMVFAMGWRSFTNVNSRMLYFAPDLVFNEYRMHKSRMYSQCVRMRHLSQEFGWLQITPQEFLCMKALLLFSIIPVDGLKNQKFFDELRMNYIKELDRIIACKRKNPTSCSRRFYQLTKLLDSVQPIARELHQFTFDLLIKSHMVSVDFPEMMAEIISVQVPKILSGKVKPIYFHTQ
In words: Western blotting analysis of AR protein levels in VCaP cells, band quantification, DC50/DC90. The note with it: VCaP cells, Table 6; read-out: VCaP DC50. It is filed as cell-based. The method, then: The appropriate cell line, e.g., prostate cancer LNCaP, Vcap, or 22RV1 cell line, was treated with Compounds of the Disclosure as indicated. The treated cells were lysed with RIPA buffer. […] GAPDH was used as a loading control.
Bands were quantified with ImageJ software. The relative numbers of each band obtained from normalization with its corresponding GAPDH level were compared with Prism 8 software. The DC50 values were produced from Prism 8, and the DC90 values were calculated with an equation=Bottom+(Top−Bottom)/(1+10^((Log EC50−X)*HillSlope) based on DC50 and Hillslope values.
In general terms: In western blotting, separated proteins are transferred to a membrane and probed.

A short description of series [1]: Mouse PK studies after oral and IV dosing. It is filed as in vivo. The note with it: for F: PO 3 mg/kg vs IV 1 mg/kg; for AUC(0-t) / clearance / half-life / Vd / Cmax / Tmax: in vivo; for clearance: read-out: IV Cl (converted); for Vd: read-out: IV VSS. The method, then:
The pharmacokinetics of representative Compounds of the Disclosure were determined after oral and IV dosing at the concentrations indicated in mouse (Table 7). […] The vehicles used in these studies are either (i) 10% PEG400+90% PBS (adjusted to pH to 8.0 by 0.5 N NaOH); or (ii) 100% PEG200.

[2] abbreviates: iv, 1 mg/kg, IV, dose 1 mg/kg, read-out: IV AUC(0 − t).
The mark [3] stands for this setting: iv, 1 mg/kg, IV, dose 1 mg/kg, read-out: IV T1/2 (converted).
Where [4] appears, read: po, 3 mg/kg, PO, dose 3 mg/kg, read-out: PO AUC(0 − t).
Where [5] appears, read: po, 3 mg/kg, PO, dose 3 mg/kg, read-out: PO T1/2 (converted).

For orientation: AUC(0-t) means exposure summed from dosing to a finite time, without extrapolation to infinity. A word on the Cmax: it is the peak of the concentration-time curve. One may read the Tmax as the time from dosing to the highest level.

Molecules are shown by their SMILES. Like-named read-outs stand apart in the source and are kept apart here.

For the compound `C[C@H]1CC2(CCN(c3ccc(C(=O)N4CCN(CC5CN(c6ccc7c(c6)C(=O)N(C6CCC(=O)NC6=O)C7=O)C5)CC4)nn3)CC2)CN1c1ccc(C#N)c(Cl)c1` (stereo partly drawn) [Cpd. No. 484, 2-chloro-4-((3S)-8-(6-(4-((1-(2-(2,6-dioxopiperidin-3-yl)-1,3-dioxoisoindolin-5-yl)azetidin-3-yl)methyl)piperazine-1-carbonyl)pyridazin-3-yl)-3-methyl-2,8-diazaspiro[4.5]decan-2-yl)benzonitrile], the DC50 at AR protein was in the range of 1 to 10 nM. The same compound registered a F in series [1] of 46%. Besides, in series [1] (setting [2]), the AUC(0-t) is 7770 ng·h/mL. Moreover, in series [1] (iv, 1 mg/kg, IV, dose 1 mg/kg), the clearance was 2 mL/min/kg and the Vd was determined as 0.62 L/kg. For the same compound, the half-life in series [1] (setting [3]) is 6.1 h. In series [1] (po, 3 mg/kg), the peak level (Cmax) was 2380 ng/mL and the time to peak (Tmax) turned out to be 1.3 h. In addition, the AUC(0-t) in series [1] (setting [4]) turned out to be 10600 ng·h/mL. In addition, the half-life in series [1] (setting [5]) is 4.5 h.
As for `C[C@H]1CC2(CCN(c3ccc(C(=O)N4CCN(CC5CN(c6cc7c(cc6F)C(=O)N(C6CCC(=O)NC6=O)C7=O)C5)CC4)nn3)CC2)CN1c1ccc(C#N)c(Cl)c1` (stereo partly drawn) [Cpd. No. 485, 2-chloro-4-((3S)-8-(6-(4-((1-(2-(2,6-dioxopiperidin-3-yl)-6-fluoro-1,3-dioxoisoindolin-5-yl)azetidin-3-yl)methyl)piperazine-1-carbonyl)pyridazin-3-yl)-3-methyl-2,8-diazaspiro[4.5]decan-2-yl)benzonitrile], the DC50 on AR protein is 1 to 10 nM. This compound also registered a F in series [1] of 73%. Moreover, the AUC(0-t) in series [1] (setting [2]) was determined as 2350 ng·h/mL. Further, in series [1] (iv, 1 mg/kg, IV, dose 1 mg/kg), the clearance was 6.5 mL/min/kg and the Vd was 2.95 L/kg. Also, the half-life in series [1] (setting [3]) is 9.8 h. For the same compound, in series [1] (po, 3 mg/kg), the highest level (Cmax) was 1100 ng/mL and the Tmax was 1 h. In series [1] (setting [4]), the AUC(0-t) stood at 5150 ng·h/mL. Also, the half-life in series [1] (setting [5]) was 7.2 h.
Turning to `C[C@H]1CC2(CCN(c3cnc(C(=O)N4CCN(CC5CN(c6cc7c(cc6F)C(=O)N(C6CCC(=O)NC6=O)C7=O)C5)CC4)cn3)CC2)CN1c1ccc(C#N)c(Cl)c1` (stereo partly drawn) [Cpd. No. 488, 2-chloro-4-((3S)-8-(5-(4-((1-(2-(2,6-dioxopiperidin-3-yl)-6-fluoro-1,3-dioxoisoindolin-5-yl)azetidin-3-yl)methyl)piperazine-1-carbonyl)pyrazin-2-yl)-3-methyl-2,8-diazaspiro[4.5]decan-2-yl)benzonitrile], the DC50 on AR protein lay within 1 to 10 nM. This compound displayed a F in series [1] of 31%. Besides, the AUC(0-t) in series [1] (setting [2]) came to 233 ng·h/mL. For the same compound, in series [1] (iv, 1 mg/kg, IV, dose 1 mg/kg), the clearance was 70.2 mL/min/kg and the Vd is 7.75 L/kg. Further, the half-life in series [1] (setting [3]) is 5 h. Besides, in series [1] (po, 3 mg/kg), the peak level (Cmax) was 99.6 ng/mL and the time of peak concentration (Tmax) was 1 h. Besides, the exposure AUC(0-t) in series [1] (setting [4]) was found to be 213 ng·h/mL. In series [1] (setting [5]), the half-life is 3.1 h.
As to `C[C@H]1CC2(CCN(c3ccc(C(=O)N4CCC(CN5CCN(c6ccc7c(c6)C(=O)N(C6CCC(=O)NC6=O)C7=O)CC5)CC4)nn3)CC2)CN1c1ccc(C#N)c(Cl)c1` (stereo partly drawn) [Cpd. No. 489, 2-chloro-4-((3S)-8-(6-(4-((4-(2-(2,6-dioxopiperidin-3-yl)-1,3-dioxoisoindolin-5-yl)piperazin-1-yl)methyl)piperidine-1-carbonyl)pyridazin-3-yl)-3-methyl-2,8-diazaspiro[4.5]decan-2-yl)benzonitrile], the DC50 on AR protein is 1 to 10 nM. This compound also had a F in series [1] of 37%. In addition, in series [1] (setting [2]), the AUC(0-t) was 2140 ng·h/mL. Also, in series [1] (iv, 1 mg/kg, IV, dose 1 mg/kg), the clearance was 7.33 mL/min/kg and the Vd came out at 2.72 L/kg. The half-life in series [1] (setting [3]) was 7.45 h. Besides, in series [1] (po, 3 mg/kg), the Cmax amounted to 477 ng/mL and the Tmax amounted to 1 h. For the same compound, the AUC(0-t) in series [1] (setting [4]) turned out to be 2390 ng·h/mL. The half-life in series [1] (setting [5]) is 7.5 h.
For the compound `C[C@H]1CC2(CCN(c3ccc(C(=O)N4CCC(CN5CCN(c6cc7c(cc6F)C(=O)N(C6CCC(=O)NC6=O)C7=O)CC5)CC4)nn3)CC2)CN1c1ccc(C#N)c(Cl)c1` (stereo partly drawn) [Cpd. No. 490, 2-chloro-4-((3S)-8-(6-(4-((4-(2-(2,6-dioxopiperidin-3-yl)-6-fluoro-1,3-dioxoisoindolin-5-yl)piperazin-1-yl)methyl)piperidine-1-carbonyl)pyridazin-3-yl)-3-methyl-2,8-diazaspiro[4.5]decan-2-yl)benzonitrile], the DC50 on AR protein lay in the range of 1 to 10 nM. Moreover, in series [1], the F was 25%. Moreover, the AUC(0-t) was 4920 ng·h/mL in series [1] (setting [2]) and 3730 ng·h/mL in series [1] (setting [4]). For the same compound, the clearance in series [1] (iv, 1 mg/kg, IV, dose 1 mg/kg) is 3 mL/min/kg. Also, the half-life in series [1] (setting [3]) was 8.7 h; in series [1] (setting [5]), 7.1 h. The Vd in series [1] (iv, 1 mg/kg, IV, dose 1 mg/kg) worked out at 1.74 L/kg. This compound also showed a maximum concentration (Cmax) in series [1] (po, 3 mg/kg) of 639 ng/mL. In addition, the time of peak concentration (Tmax) in series [1] (po, 3 mg/kg) stood at 1 h.
As to `C[C@H]1CC2(CCN(c3ccc(C(=O)N4CCN(CC5CCN(c6ccc7c(c6)C(=O)N(C6CCC(=O)NC6=O)C7=O)CC5)CC4)nn3)CC2)CN1c1ccc(C#N)c(Cl)c1` (stereo partly drawn) [Cpd. No. 491, 2-chloro-4-((3S)-8-(6-(4-((1-(2-(2,6-dioxopiperidin-3-yl)-1,3-dioxoisoindolin-5-yl)piperidin-4-yl)methyl)piperazine-1-carbonyl)pyridazin-3-yl)-3-methyl-2,8-diazaspiro[4.5]decan-2-yl)benzonitrile], the DC50 at AR protein lay in the range of 1 to 10 nM. In series [1], this compound showed an F of 34%. Also, the AUC(0-t) in series [1] (setting [2]) stood at 2640 ng·h/mL. Also, in series [1] (iv, 1 mg/kg, IV, dose 1 mg/kg), the clearance is 6 mL/min/kg and the Vd is 2.09 L/kg. For the same compound, the half-life in series [1] (setting [3]) is 7.7 h. In series [1] (po, 3 mg/kg), the Cmax worked out at 789 ng/mL and the time to peak (Tmax) stood at 1 h. Moreover, the AUC(0-t) in series [1] (setting [4]) turned out to be 2710 ng·h/mL. Moreover, the half-life in series [1] (setting [5]) was 5.7 h.
Take `C[C@H]1CC2(CCN(c3cnc(C(=O)N4CCC(CN5CCN(c6ccc7c(c6)C(=O)N(C6CCC(=O)NC6=O)C7=O)CC5)CC4)cn3)CC2)CN1c1ccc(C#N)c(Cl)c1` (stereo partly drawn) [Cpd. No. 492, 2-chloro-4-((3S)-8-(5-(4-((4-(2-(2,6-dioxopiperidin-3-yl)-1,3-dioxoisoindolin-5-yl)piperazin-1-yl)methyl)piperidine-1-carbonyl)pyrazin-2-yl)-3-methyl-2,8-diazaspiro[4.5]decan-2-yl)benzonitrile]: the DC50 on AR protein was in the range of 1 to 10 nM. Also, the F in series [1] is 15%. Also, the exposure AUC(0-t) in series [1] (setting [2]) came to 277 ng·h/mL. Besides, in series [1] (iv, 1 mg/kg, IV, dose 1 mg/kg), the clearance is 54.5 mL/min/kg and the Vd came out at 7.71 L/kg. Besides, the half-life in series [1] (setting [3]) was 3.3 h. Further, in series [1] (po, 3 mg/kg), the Cmax was 59 ng/mL and the time of peak concentration (Tmax) is 0.5 h. Also, in series [1] (setting [4]), the area under the curve AUC(0-t) turned out to be 123 ng·h/mL. In addition, in series [1] (setting [5]), the half-life is 2.1 h.
Regarding `C[C@H]1CC2(CCN(c3ccc(C(=O)N4CC(N5CCN(c6cc7c(cc6F)C(=O)N(C6CCC(=O)NC6=O)C7=O)CC5)C4)nc3)CC2)CN1c1ccc(C#N)c(Cl)c1` (stereo partly drawn) [Cpd. No. 538, 2-chloro-4-((3S)-8-(6-(3-(4-(2-(2,6-dioxopiperidin-3-yl)-6-fluoro-1,3-dioxoisoindolin-5-yl)piperazin-1-yl)azetidine-1-carbonyl)pyridin-3-yl)-3-methyl-2,8-diazaspiro[4.5]decan-2-yl)benzonitrile], the DC50 at AR protein was 1 to 10 nM.
Same read-out and setting: the figure for `C[C@H]1CC2(CCN(c3ccc(C(=O)N4CC(N5CCN(c6cc7c(cc6F)C(=O)N(C6CCC(=O)NC6=O)C7=O)CC5)C4)cn3)CC2)CN1c1ccc(C#N)c(Cl)c1` (stereo partly drawn) [Cpd. No. 539, 2-chloro-4-((3S)-8-(5-(3-(4-(2-(2,6-dioxopiperidin-3-yl)-6-fluoro-1,3-dioxoisoindolin-5-yl)piperazin-1-yl)azetidine-1-carbonyl)pyridin-2-yl)-3-methyl-2,8-diazaspiro[4.5]decan-2-yl)benzonitrile] is 1 to 10 nM.

The values are drawn from patent US20220380368A1, “SPIROCYCLIC ANDROGEN RECEPTOR PROTEIN DEGRADERS” (THE REGENTS OF THE UNIVERSITY OF MICHIGAN, priority 2019, published 2022).
